ChEMBL document CHEMBL1150602, “Novel diterpene lactones from Suregada multiflora” (2002)

Tests used:
[1] = tested on: Saccharomyces cerevisiae; assay: DNA damaging activity against DNA repair-deficient yeast RAD52 mutant assessed as drug concentration required to produce 12 mm zone of inhibition; assay type: functional
[2] = tested on: Saccharomyces cerevisiae; assay: DNA damaging activity against DNA repair-proficient yeast RAD+ assessed as drug concentration required to produce 12 mm zone of inhibition; assay type: functional

SMILES | IC12 [1] [µg/mL] | IC12 [2] [µg/mL]
COC1=C(N)C(=O)c2nc(-c3nc(C(=O)O)c(C)c(-c4ccc(OC)c(OC)c4O)c3N)ccc2C1=O [STREPTONIGRIN] | 0.4 | > 1
CC1=C2[C@@H](O)[C@]3(O)CC[C@@H]4[C@@]5(C)C[C@H]5CC[C@@]4(C)[C@@H]3C[C@H]2OC1=O [SUREGADOLIDE A] | 35 | 70
